Target: HPK1 (Homo sapiens, UniProt Q92918)
Test: HPK1 Kinase Binding Assay
Conditions: LanthaScreen tracer 222 binding, one hour incubation at 25° C.
Experimental: Example A. HPK1 Kinase Binding Assay
A stock solution of 1 mM test compound was prepared in DMSO. The compound plate was prepared by 3-fold and 11-point serial dilutions. 0.1 μL of the compound in DMSO was transferred from the compound plate to the white 384 well polystyrene plates. The assay buffer contained 50 mM HEPES, pH 7.5, 0.01% Tween-20, 5 mM MgCl2, 0.01% BSA, and 5 mM DTT. 5 μl of 4 nM active HPK1 (SignalChem M23-11G) prepared in the buffer was added to the plate. The enzyme concentration given was based on the given stock concentration reported by the vender. 5 μl of 18 nM tracer 222 (ThermoFisher PV6121) and 4 nM LanthaScreen Eu-Anti GST antibody (ThermoFisher PV5595) were added. After one hour incubation at 25° C., the plates were read on a PHERAstar FS plate reader (BMG Labtech). Ki values were determined.

Sequence of HPK1 (Q92918 whole entry, looked up): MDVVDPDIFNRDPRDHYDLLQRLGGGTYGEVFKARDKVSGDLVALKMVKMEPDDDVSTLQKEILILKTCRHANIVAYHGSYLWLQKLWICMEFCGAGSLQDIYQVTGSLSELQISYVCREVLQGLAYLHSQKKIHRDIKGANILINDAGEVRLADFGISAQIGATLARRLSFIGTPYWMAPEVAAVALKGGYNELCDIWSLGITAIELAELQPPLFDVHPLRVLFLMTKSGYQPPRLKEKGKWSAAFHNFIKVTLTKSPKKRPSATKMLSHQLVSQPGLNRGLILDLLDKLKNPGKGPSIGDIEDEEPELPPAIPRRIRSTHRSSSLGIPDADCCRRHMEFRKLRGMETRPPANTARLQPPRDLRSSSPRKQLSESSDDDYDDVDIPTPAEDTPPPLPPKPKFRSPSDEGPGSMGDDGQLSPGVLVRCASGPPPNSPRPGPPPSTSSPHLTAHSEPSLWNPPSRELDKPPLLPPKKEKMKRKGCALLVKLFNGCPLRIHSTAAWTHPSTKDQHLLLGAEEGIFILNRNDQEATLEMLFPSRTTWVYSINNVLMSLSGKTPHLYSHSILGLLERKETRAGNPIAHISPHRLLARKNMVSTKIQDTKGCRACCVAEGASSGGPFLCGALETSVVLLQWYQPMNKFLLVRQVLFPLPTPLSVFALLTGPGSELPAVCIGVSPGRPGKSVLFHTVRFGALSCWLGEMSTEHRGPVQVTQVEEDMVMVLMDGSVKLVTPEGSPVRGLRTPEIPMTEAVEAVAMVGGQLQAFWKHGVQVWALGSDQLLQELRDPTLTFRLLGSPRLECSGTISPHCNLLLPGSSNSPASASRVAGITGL

Ki, ≤ 100 nM:
Cc1ccccc1-c1ccc2[nH]nc(-c3ccc(N4CCN(C)CC4)cc3)c2n1 [Example 3]
CN1CCN(c2ccc(-c3n[nH]c4ccc(-c5ccccc5F)nc34)cc2)CC1 [Example 4, 5-(2-Fluorophenyl)-3-(4-(4-methylpiperazin-1-yl)phenyl)-1H-pyrazolo[4,3-b]pyridine]
CN1CCN(c2ccc(-c3n[nH]c4ccc(-c5ccccc5C(F)(F)F)nc34)cc2)CC1 [Example 5, 3-(4-(4-Methylpiperazin-1-yl)phenyl)-5-(2-(trifluoromethyl)phenyl)-1H-pyrazolo[4,3-b]pyridine]
Cc1c(N)cccc1-c1ccc2[nH]nc(-c3ccc(N4CCN(C)CC4)cc3)c2n1 [Example 6, 2-Methyl-3-(3-(4-(4-methylpiperazin-1-yl)phenyl)-1H-pyrazolo[4,3-b]pyridin-5-yl)aniline]
Cc1cccc(F)c1-c1ccc2[nH]nc(-c3ccc(N4CCN(C)CC4)cc3)c2n1 [Example 7, 5-(2-Fluoro-6-methylphenyl)-3-(4-(4-methylpiperazin-1-yl)phenyl)-1H-pyrazolo[4,3-b]pyridine]
COc1cccc(F)c1-c1ccc2[nH]nc(-c3ccc(N4CCN(C)CC4)cc3)c2n1 [Example 8, 5-(2-Fluoro-6-methoxyphenyl)-3-(4-(4-methylpiperazin-1-yl)phenyl)-1H-pyrazolo[4,3-b]pyridine]
CN1CCN(c2ccc(-c3n[nH]c4ccc(-c5cccc(F)c5F)nc34)cc2)CC1 [Example 9, 5-(2,3-Difluorophenyl)-3-(4-(4-methylpiperazin-1-yl)phenyl)-1H-pyrazolo[4,3-b]pyridine]
COc1ccc(F)c(F)c1-c1ccc2[nH]nc(-c3ccc(N4CCN(C)CC4)cc3)c2n1 [Example 10, 5-(2,3-Difluoro-6-methoxyphenyl)-3-(4-(4-methylpiperazin-1-yl)phenyl)-1H-pyrazolo[4,3-b]pyridine]
CN1CCN(c2ccc(-c3n[nH]c4ccc(-c5c(F)cccc5CO)nc34)cc2)CC1 [Example 11, (3-Fluoro-2-(3-(4-(4-methylpiperazin-1-yl)phenyl)-1H-pyrazolo[4,3-b]pyridin-5-yl)phenyl)methanol]
CCOC(=O)c1cccc(-c2ccc3[nH]nc(-c4ccc(N5CCN(C)CC5)cc4)c3n2)c1F [Example 12, Ethyl 2-fluoro-3-(3-(4-(4-methylpiperazin-1-yl)phenyl)-1H-pyrazolo[4,3-b]pyridin-5-yl)benzoate]
CN1CCN(c2ccc(-c3n[nH]c4ccc(-c5cccc(NS(C)(=O)=O)c5F)nc34)cc2)CC1 [Example 13, N-(2-Fluoro-3-(3-(4-(4-methylpiperazin-1-yl)phenyl)-1H-pyrazolo[4,3-b]pyridin-5-yl)phenyl)methanesulfonamide]
CN1CCN(c2ccc(-c3n[nH]c4ccc(-c5ccccc5C#N)nc34)cc2)CC1 [Example 19]
CN1CCN(c2ccc(-c3n[nH]c4ccc(-c5cccc6[nH]ncc56)nc34)cc2)CC1 [Example 23, 5-(1H-Indazol-4-yl)-3-(4-(4-methylpiperazin-1-yl)phenyl)-1H-pyrazolo[4,3-b]pyridine]
CN1CCN(c2ccc(-c3n[nH]c4ccc(-c5cccnc5)nc34)cc2)CC1 [Example 24, 3-(4-(4-Methylpiperazin-1-yl)phenyl)-5-(pyridin-3-yl)-1H-pyrazolo[4,3-b]pyridine]
CN1CCN(c2ccc(-c3n[nH]c4ccc(-c5cncnc5)nc34)cc2)CC1 [Example 26, 3-(4-(4-Methylpiperazin-1-yl)phenyl)-5-(pyrimidin-5-yl)-1H-pyrazolo[4,3-b]pyridine]
CN1CCN(c2ccc(-c3n[nH]c4ccc(-c5cnc6c(c5)CC(=O)N6)nc34)cc2)CC1 [Example 27, 5-(3-(4-(4-Methylpiperazin-1-yl)phenyl)-1H-pyrazolo[4,3-b]pyridin-5-yl)-1H-pyrrolo[2,3-b]pyridin-2(3H)-one]
CN1CCN(c2ccc(-c3n[nH]c4ccc(-c5cnc6cnn(C)c6c5)nc34)cc2)CC1 [Example 28, 1′-Methyl-3-(4-(4-methylpiperazin-1-yl)phenyl)-1H,1′H-5,6′-bipyrazolo[4,3-b]pyridine]
CN1CCN(c2ccc(-c3n[nH]c4ccc(-c5cncc(-c6ncco6)c5)nc34)cc2)CC1 [Example 29, 2-(5-(3-(4-(4-Methylpiperazin-1-yl)phenyl)-1H-pyrazolo[4,3-b]pyridin-5-yl)pyridin-3-yl)oxazole]
CN1CCN(c2ccc(-c3n[nH]c4ccc(-c5cnc6c(c5)ncn6C)nc34)cc2)CC1 [Example 31, 5-(3-Methyl-3H-imidazo[4,5-b]pyridin-6-yl)-3-(4-(4-methylpiperazin-1-yl)phenyl)-1H-pyrazolo[4,3-b]pyridine]
CN1CCN(c2ccc(-c3n[nH]c4ccc(-c5cnc6nccnc6c5)nc34)cc2)CC1 [Example 32, 7-(3-(4-(4-methylpiperazin-1-yl)phenyl)-1H-pyrazolo[4,3-b]pyridin-5-yl)pyrido[3,2-b]pyrazine]
CN1CCN(c2ccc(-c3n[nH]c4ccc(-c5cncc6oc(C(C)(C)C)nc56)nc34)cc2)CC1 [Example 33, 2-tert-Butyl-7-(3-(4-(4-methylpiperazin-1-yl)phenyl)-1H-pyrazolo[4,3-b]pyridin-5-yl)oxazolo[5,4-c]pyridine]
Cc1n[nH]cc1-c1ccc2[nH]nc(-c3ccc(N4CCN(C)CC4)cc3)c2n1 [Example 34, 5-(3-Methyl-1H-pyrazol-4-yl)-3-(4-(4-methylpiperazin-1-yl)phenyl)-1H-pyrazolo[4,3-b]pyridine]
CN1CCN(c2ccc(-c3n[nH]c4ccc(-c5cnn6ccccc56)nc34)cc2)CC1 [Example 35, 3-(4-(4-Methylpiperazin-1-yl)phenyl)-5-(pyrazolo[1,5-a]pyridin-3-yl)-1H-pyrazolo[4,3-b]pyridine]
CN1CCN(c2ccc(-c3n[nH]c4ccc(-c5cncc6ccccc56)nc34)cc2)CC1 [Example 37, 4-(3-(4-(4-Methylpiperazin-1-yl)phenyl)-1H-pyrazolo[4,3-b]pyridin-5-yl)isoquinoline]
CN1CCN(c2ccc(-c3n[nH]c4ccc(-c5cccc(C(N)=O)c5F)nc34)cc2)CC1 [Example 40, 2-Fluoro-3-(3-(4-(4-methylpiperazin-1-yl)phenyl)-1H-pyrazolo[4,3-b]pyridin-5-yl)benzamide]
CNC(=O)c1cccc(-c2ccc3[nH]nc(-c4ccc(N5CCN(C)CC5)cc4)c3n2)c1F [Example 41, 2-Fluoro-N-methyl-3-(3-(4-(4-methylpiperazin-1-yl)phenyl)-1H-pyrazolo[4,3-b]pyridin-5-yl)benzamide]
CN1CCN(c2ccc(-c3n[nH]c4ccc(-c5cccc(C(=O)NCc6ccccc6)c5F)nc34)cc2)CC1 [Example 42, N-Benzyl-2-fluoro-3-(3-(4-(4-methylpiperazin-1-yl)phenyl)-1H-pyrazolo[4,3-b]pyridin-5-yl)benzamide]
CN1CCN(c2ccc(-c3n[nH]c4ccc(-c5cccc(C(=O)NCc6ccncc6)c5F)nc34)cc2)CC1 [Example 43, 2-Fluoro-3-(3-(4-(4-methylpiperazin-1-yl)phenyl)-1H-pyrazolo[4,3-b]pyridin-5-yl)-N-(pyridin-4-ylmethyl)benzamide]
CN1CCN(c2ccc(-c3n[nH]c4ccc(-c5cccn6ccnc56)nc34)cc2)CC1 [Example 44, 5-(Imidazo[1,2-a]pyridin-8-yl)-3-(4-(4-methylpiperazin-1-yl)phenyl)-1H-pyrazolo[4,3-b]pyridine]
CN1CCN(c2ccc(-c3n[nH]c4ccc(-c5cccc6c5CCNC6)nc34)cc2)CC1 [Example 46, 5-(3-(4-(4-Methylpiperazin-1-yl)phenyl)-1H-pyrazolo[4,3-b]pyridin-5-yl)-1,2,3,4-tetrahydroisoquinoline]
CN1CCN(c2ccc(-c3n[nH]c4ccc(-c5cccc6c5CCC6N)nc34)cc2)CC1 (stereo not shown) [Example 47, 4-(3-(4-(4-Methylpiperazin-1-yl)phenyl)-1H-pyrazolo[4,3-b]pyridin-5-yl)-2,3-dihydro-1H-inden-1-amine]
CNC1CCc2c(-c3ccc4[nH]nc(-c5ccc(N6CCN(C)CC6)cc5)c4n3)cccc21 (stereo not shown) [Example 48, N-Methyl-4-(3-(4-(4-methylpiperazin-1-yl)phenyl)-1H-pyrazolo[4,3-b]pyridin-5-yl)-2,3-dihydro-1H-inden-1-amine]
CN1CCN(c2ccc(-c3n[nH]c4ccc(-c5cccc6c5CCC6NCc5ccccc5)nc34)cc2)CC1 (stereo not shown) [Example 50, N-Benzyl-4-(3-(4-(4-methylpiperazin-1-yl)phenyl)-1H-pyrazolo[4,3-b]pyridin-5-yl)-2,3-dihydro-1H-inden-1-amine]
CN1CCC(NC(=O)c2ccc(-c3n[nH]c4ccc(-c5ccccc5F)nc34)cc2)CC1 [Example 55, 4-(5-(2-Fluorophenyl)-1H-pyrazolo[4,3-b]pyridin-3-yl)-N-(1-methylpiperidin-4-yl)benzamide]

Source: patent US11242343B2 (Incyte Corporation, priority 2016, dated 2022)
